Data published in ChEMBL document CHEMBL3734678, “Protective effect and mechanism of action of lupane triterpenes from Cornus walteri in cisplatin-induced nephrotoxicity” (2015).
The source made the active and inactive calls. The calls are words filed in the database; no cut-off is given here.

Assays:
[1] = system: LLC-PK1; assay: Renoprotective activity in pig LLC-PK1 cells assessed as reduction in cisplatin-induced cell shrank at 125 uM preincubated for 2 hrs followed by cisplatin challenge for 24 hrs by phase-contrast microscopic analysis; type: functional, cell-based; conditions: Sus scrofa
[2] = system: LLC-PK1; assay: Renoprotective activity in pig LLC-PK1 cells assessed as inhibition of cisplatin-induced cleaved caspase-3 expression at 125 uM preincubated for 2 hrs followed by cisplatin challenge for 24 hrs by western blot analysis; type: functional, cell-based; conditions: Sus scrofa
[3] = system: LLC-PK1; assay: Inhibition of cisplatin-induced ERK phosphorylation in pig LLC-PK1 cells at 125 uM preincubated for 2 hrs followed by cisplatin challenge for 24 hrs by western blot analysis; type: cell-based; conditions: Sus scrofa
[4] = system: LLC-PK1; assay: Inhibition of cisplatin-induced p38 phosphorylation in pig LLC-PK1 cells at 125 uM preincubated for 2 hrs followed by cisplatin challenge for 24 hrs by western blot analysis; type: cell-based; conditions: Sus scrofa
[5] = system: LLC-PK1; assay: Renoprotective activity in pig LLC-PK1 cells assessed as reduction in cisplatin-induced toxicity preincubated for 2 hrs followed by cisplatin challenge for 24 hrs by MTT assay; type: functional, cell-based; conditions: Sus scrofa
[6] = system: LLC-PK1; assay: Renoprotective activity against cisplatin induced toxicity in pig LLC-PK1 cells assessed as reduction in apoptotic cells at 125 uM preincubated for 2 hrs followed by cisplatin challenge for 24 hrs annexin-V-FITC and propidium iodide staining based flow cytometry; type: functional, cell-based; conditions: Sus scrofa
[7] = system: LLC-PK1; assay: Renoprotective activity in pig LLC-PK1 cells assessed as reduction in cisplatin-induced nucleus break-up at 125 uM preincubated for 2 hrs followed by cisplatin challenge for 24 hrs by phase-contrast microscopic analysis; type: functional, cell-based; conditions: Sus scrofa
[8] = system: LLC-PK1; assay: Renoprotective activity in pig LLC-PK1 cells assessed as reduction in cisplatin-induced toxicity at 250 uM preincubated for 2 hrs followed by cisplatin challenge for 24 hrs by MTT assay; type: functional, Sus scrofa; set-up: scale not given: the % may be the effect or the level left
[9] = system: LLC-PK1; assay: Renoprotective activity in pig LLC-PK1 cells assessed as reduction in cisplatin-induced toxicity at 125 uM preincubated for 2 hrs followed by cisplatin challenge for 24 hrs by MTT assay; type: functional, Sus scrofa; set-up: scale not given: the % may be the effect or the level left
[10] = system: LLC-PK1; assay: Inhibition of cisplatin-induced JNK phosphorylation in pig LLC-PK1 cells at 125 uM preincubated for 2 hrs followed by cisplatin challenge for 24 hrs by western blot analysis; type: cell-based; conditions: Sus scrofa
[11] = system: LLC-PK1; assay: Renoprotective activity in pig LLC-PK1 cells assessed as reduction in cisplatin-induced progressive condensation at 125 uM preincubated for 2 hrs followed by cisplatin challenge for 24 hrs by phase-contrast microscopic analysis; type: functional, cell-based; conditions: Sus scrofa

C=C(C)[C@@H]1CC[C@]2(CO)CC[C@]3(C)[C@H](CC[C@@H]4[C@@]5(C)CC[C@H](OC(C)=O)C(C)(C)[C@@H]5CC[C@]43C)[C@@H]12 was tested, and the Activity [1] was “Active”, the inhibition [2] was “Active” and the inhibition [3] was “Active”. For the same molecule, the inhibition [4] was “Active”, the Activity [5] was “Dose-dependent effect” and the Activity [6] was “Active”. For the same molecule, the Activity [7] was “Active”, the Activity [8] was 80% and the Activity [9] was 80%. The inhibition [10] was “Active” and the Activity [11] was “Active”.
C=C(C=O)[C@@H]1CC[C@]2(C(=O)O)CC[C@]3(C)[C@H](CC[C@@H]4[C@@]5(C)CC[C@H](O)C(C)(C)[C@@H]5CC[C@]43C)[C@@H]12 was tested, and the Activity [1] was “Active”, the inhibition [2] was “Active” and the inhibition [3] was “Active”. The inhibition [4] was “Active”, the Activity [5] was “Dose-dependent effect” and the Activity [6] was “Active”. The Activity [7] was “Active”, the Activity [8] was 80% and the Activity [9] was 80%. For the same molecule, the inhibition [10] was “Active” and the Activity [11] was “Active”.
In the case of C=C(C)[C@@H]1CC[C@]2(C(=O)OC)CC[C@]3(C)[C@H](CC[C@@H]4[C@@]5(C)CC[C@@H](O)C(C)(C)[C@@H]5CC[C@]43C)[C@@H]12, the Activity [5] is reported as “Dose-dependent effect”.
For C=C(C)[C@@H]1CC[C@]2(C(=O)O)CC[C@]3(C)[C@H](CC[C@@H]4[C@@]5(C)C[C@@H](OC(=O)/C=C/c6ccc(O)cc6)[C@H](O)C(C)(C)[C@@H]5CC[C@]43C)[C@@H]12, the Activity [5] was “Dose-dependent effect”.
C=C(C)[C@@H]1CC[C@]2(C)CC[C@]3(C)[C@H](CC[C@@H]4[C@@]5(C)CC[C@H](O)C(C)(C)[C@@H]5CC[C@]43C)[C@@H]12 [LUPEOL] was tested, and the Activity [1] was “Active”, the inhibition [2] was “Active” and the inhibition [3] was “Active”. For the same molecule, the inhibition [4] was “Active”, the Activity [5] was “Dose-dependent effect” and the Activity [6] was “Active”. The Activity [7] was “Active”, the Activity [8] was 80% and the Activity [9] was 80%. The inhibition [10] was “Active” and the Activity [11] was “Active”.
With C=C(C)[C@@H]1CC[C@]2(C(=O)O)CC[C@]3(C)[C@H](CC[C@@H]4[C@@]5(C)C[C@@H](O)[C@H](O)C(C)(C)[C@@H]5CC[C@]43C)[C@@H]12 the Activity [5] was “Dose-dependent effect”.
For C=C(C)[C@@H]1CC[C@]2(C(=O)O)CC[C@]3(C)[C@H](CC[C@@H]4[C@@]5(C)CC[C@H](O)C(C)(C)[C@@H]5CC[C@]43C)[C@@H]12 [BETULINIC ACID], the Activity [1] was “Active”, the inhibition [2] was “Active” and the inhibition [3] was “inactive”. The inhibition [4] was “Active”, the Activity [5] was “Dose-dependent effect” and the Activity [6] was “Active”. For the same molecule, the Activity [7] was “Active”, the Activity [8] was 80% and the Activity [9] was 80%. The inhibition [10] was “Active” and the Activity [11] was “Active”.
